Test systems include NCI-H460 lung; MDA-MB-435; COLO 205 colon; T-47D breast; HOP-92 NSCLC; SF-295 CNS; U251 CNS; MCF7 breast; SW-620 colon; NCI-H226 lung.
What all share (assay): inhibition of tumour cell growth, NCI panel, 48 h

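Five compound concentrations were applied to cells in 96-well plates for 48 hours; endpoints were derived by simple linear interpolation of the resulting dose-response curve. GI50 is the concentration that inhibits growth by half. TGI denotes the concentration required for complete inhibition of growth.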

Turning to `O=C(O)Cc1[nH]cnc1C(=O)O`, the TGI in the experiment with NCI-H460 lung, in the experiment with MDA-MB-435, in the experiment on COLO 205 colon, with T-47D breast, in the experiment on HOP-92 NSCLC and in the experiment on SF-295 CNS was more than 100 µM in each case. Moreover, the TGI in the experiment with U251 CNS, with MCF7 breast, with SW-620 colon and in the experiment on NCI-H226 lung was more than 100 µM throughout.
Regarding `N#CC1=C(N)Nc2nc3ccccc3n2C1c1ccccc1` (stereo not given), the TGI in the experiment with NCI-H460 lung is more than 100 µM; in the experiment with MDA-MB-435, more than 100 µM; in the experiment on COLO 205 colon it was more than 100 µM; in the experiment on T-47D breast, 63.1 µM; in the experiment on SF-295 CNS, more than 100 µM; in the experiment with U251 CNS, more than 100 µM. The TGI in the experiment on MCF7 breast and with SW-620 colon was more than 100 µM each time.
For `CCOn1cc(C2=C(c3c[nH]c4ccccc34)C(=O)NC2=O)c2ccccc21`, the TGI was 15.4 µM with NCI-H460 lung; less than 0.0142 µM with MDA-MB-435; more than 100 µM in the experiment on T-47D breast; 38.8 µM in the experiment with HOP-92 NSCLC; 0.0443 µM with SF-295 CNS; 19.5 µM with U251 CNS. Moreover, the TGI in the experiment with MCF7 breast was found to be 1.03 µM; in the experiment with SW-620 colon, 22.7 µM; with NCI-H226 lung, 27.4 µM. The GI50 was less than 0.01 µM with MDA-MB-435; less than 0.0439 µM in the experiment on COLO 205 colon; 18.5 µM in the experiment with T-47D breast; 23.2 µM with HOP-92 NSCLC; 0.0156 µM in the experiment on SF-295 CNS; 0.488 µM in the experiment on U251 CNS. Moreover, the values for the GI50 with MCF7 breast, with SW-620 colon and in the experiment with NCI-H226 lung were less than 0.0149 µM, less than 0.01 µM and 1.01 µM, respectively.
As for `CC1(C)N=C(N)N=C(N)N1c1cccc(OCc2cccc([N+](=O)[O-])c2)c1`, the TGI is 51.6 µM in the experiment on NCI-H460 lung; more than 100 µM in the experiment on MDA-MB-435; more than 100 µM in the experiment with COLO 205 colon; more than 89.1 µM with T-47D breast; more than 100 µM in the experiment with HOP-92 NSCLC; more than 100 µM in the experiment with SF-295 CNS. Further, the TGI with U251 CNS was 98.9 µM; in the experiment on MCF7 breast, more than 100 µM; in the experiment with SW-620 colon, more than 100 µM; in the experiment with NCI-H226 lung it was more than 100 µM.
On to `COC(=O)c1nc2c3c(cccc3c1C(=O)OC)Nc1ccccc1-2`, for which the TGI with NCI-H460 lung was 77.9 µM; in the experiment with MDA-MB-435, more than 100 µM; in the experiment on COLO 205 colon, more than 100 µM; with HOP-92 NSCLC, 50.2 µM; with SF-295 CNS, more than 100 µM; with U251 CNS it was more than 100 µM. For the same compound, the TGI in the experiment on MCF7 breast, in the experiment with SW-620 colon and with NCI-H226 lung was more than 100 µM throughout.
Consider `O=C1OC2(c3ccc(O)cc3Oc3cc(O)ccc32)c2c1c(-c1ccccc1)c(-c1ccccc1)c(-c1ccccc1)c2-c1ccccc1`, for which the TGI in the experiment on NCI-H460 lung stood at 33.7 µM; with MDA-MB-435, 35.1 µM; with COLO 205 colon it was 35.2 µM; with T-47D breast, 71.4 µM; with HOP-92 NSCLC, 36.8 µM; with SF-295 CNS it was 49.5 µM. Moreover, the TGI in the experiment with U251 CNS was found to be 31.5 µM; in the experiment on MCF7 breast, 31.1 µM; in the experiment on SW-620 colon it was 52 µM; with NCI-H226 lung it was 87.3 µM.
`CSc1sc(=S)sc1SC`: the TGI in the experiment on NCI-H460 lung, in the experiment on COLO 205 colon, in the experiment with HOP-92 NSCLC, with SF-295 CNS, in the experiment with U251 CNS and with MCF7 breast was more than 100 µM in each case. Also, the TGI in the experiment on SW-620 colon and in the experiment with NCI-H226 lung was more than 100 µM in each case.
For `C/C(=C\COP(=O)(O)OP(=O)(O)O)CC/C=C(\C)CNc1ccc([N+](=O)[O-])cc1`, the TGI in the experiment with NCI-H460 lung, with MDA-MB-435, in the experiment on COLO 205 colon, in the experiment on T-47D breast, with HOP-92 NSCLC and in the experiment with SF-295 CNS was more than 100 µM throughout. Besides, the TGI in the experiment with U251 CNS, in the experiment with MCF7 breast, with SW-620 colon and in the experiment with NCI-H226 lung was more than 100 µM each time.
With `C#C[C@@]1(O)[C@@H](CO)O[C@@H](n2cc(F)c3c(N)ncnc32)[C@@H]1O`, the GI50 is 0.231 µM with NCI-H460 lung; 0.416 µM in the experiment with MDA-MB-435; 0.263 µM in the experiment with COLO 205 colon; 0.214 µM in the experiment on T-47D breast; 0.653 µM in the experiment on SF-295 CNS; 0.631 µM in the experiment on U251 CNS. For the same compound, the GI50 with SW-620 colon is 0.159 µM; in the experiment with NCI-H226 lung, 0.521 µM. The TGI in the experiment on NCI-H460 lung worked out at 10.2 µM; in the experiment on MDA-MB-435 it was 3.26 µM; with COLO 205 colon it was 1.3 µM; in the experiment with T-47D breast it was 0.77 µM; in the experiment with SF-295 CNS, 2.33 µM; with U251 CNS, 11.6 µM. Moreover, the TGI with SW-620 colon was 2.9 µM; with NCI-H226 lung, 2.63 µM.
As for `NC(=O)c1cc(C2OC(CO)C(O)C2O)nn1-c1ccc([N+](=O)[O-])cc1` (stereo not given), the TGI in the experiment with NCI-H460 lung, in the experiment on COLO 205 colon, in the experiment on HOP-92 NSCLC, in the experiment with SF-295 CNS, in the experiment with U251 CNS and in the experiment with SW-620 colon was more than 100 µM each time. Moreover, in the experiment on NCI-H226 lung, the TGI was more than 100 µM.
On to `C[C@H](CCC1=NCCN1)[C@H]1CC[C@H]2[C@@H]3CC[C@@H]4C[C@H](O)CC[C@]4(C)[C@H]3CC[C@]12C`, for which the TGI is more than 33.9 µM in the experiment with NCI-H460 lung; 22 µM in the experiment with MDA-MB-435; 3.18 µM with COLO 205 colon; more than 51.8 µM in the experiment with T-47D breast; 19.5 µM in the experiment on HOP-92 NSCLC; 10.4 µM in the experiment with SF-295 CNS. Besides, the TGI with U251 CNS was more than 45.2 µM; with MCF7 breast, more than 57.4 µM; with SW-620 colon, more than 48.9 µM; in the experiment on NCI-H226 lung, 28.2 µM.
As to `O=C(O)C(Br)Cc1ccc2c(c1)OCO2` (stereo not given), the TGI in the experiment with NCI-H460 lung, in the experiment with COLO 205 colon, in the experiment on HOP-92 NSCLC, with SF-295 CNS, with U251 CNS and in the experiment on SW-620 colon was more than 100 µM throughout.
In the case of `COc1ccc(/C(Cl)=C(\C=O)c2ccc(Cl)c(Cl)c2)cc1OC`, the TGI turned out to be 12.4 µM in the experiment on NCI-H460 lung; 33.7 µM in the experiment on COLO 205 colon; 13.8 µM in the experiment with HOP-92 NSCLC; 15.9 µM in the experiment with SF-295 CNS; 15 µM in the experiment with U251 CNS; 16.3 µM in the experiment on SW-620 colon. The compound further came in with a TGI in the experiment on NCI-H226 lung of 18.6 µM.
Take `CCCCCCCCCCCCCCCCOCCCOP(=O)(O)C1CCCN(O)C1=O` (stereo not given): the GI50 with NCI-H460 lung was 0.375 µM; in the experiment with MDA-MB-435, 3.13 µM; with COLO 205 colon, 0.548 µM; with T-47D breast, 6.15 µM; with HOP-92 NSCLC it was 6.08 µM; with SF-295 CNS, 2.44 µM. In addition, the GI50 is 0.489 µM in the experiment with U251 CNS, 3.39 µM in the experiment with MCF7 breast, 1.47 µM in the experiment with SW-620 colon and 2.1 µM in the experiment with NCI-H226 lung. The TGI is 4.51 µM in the experiment on NCI-H460 lung; more than 100 µM with MDA-MB-435; 13.3 µM with COLO 205 colon; 27.5 µM in the experiment with T-47D breast; 40 µM in the experiment on HOP-92 NSCLC; 11.3 µM with SF-295 CNS. For the same compound, the TGI in the experiment with U251 CNS was 15.3 µM; in the experiment with MCF7 breast, 20 µM; in the experiment on SW-620 colon, 22.3 µM; in the experiment on NCI-H226 lung it was 14.3 µM.
As to `COc1ccc(/C=C/[N+](=O)[O-])cc1`, the TGI is 55.3 µM with NCI-H460 lung; 4.21 µM in the experiment on MDA-MB-435; more than 100 µM in the experiment with COLO 205 colon; 7.7 µM in the experiment on SF-295 CNS; 19.1 µM with U251 CNS; 5.83 µM in the experiment with MCF7 breast. The TGI in the experiment with SW-620 colon was more than 100 µM; with NCI-H226 lung, 17.4 µM.
With `O=C1c2ccccc2C(=O)c2c(O)c(O)cc(O)c21`, the TGI in the experiment on NCI-H460 lung was more than 100 µM; in the experiment with COLO 205 colon it was more than 100 µM; with HOP-92 NSCLC, 76.2 µM; in the experiment with SF-295 CNS, more than 100 µM; with U251 CNS, more than 100 µM; in the experiment on SW-620 colon, more than 100 µM.
With `COc1cc2c3c(c4cc(OC)c(OC)cc4c2cc1OC)[C@H](O)[C@@H]1CCCN1C3`, the TGI with NCI-H460 lung stood at 0.72 µM; in the experiment with MDA-MB-435 it was 2.86 µM; in the experiment on COLO 205 colon, 0.154 µM; in the experiment with T-47D breast it was 2.53 µM; in the experiment on HOP-92 NSCLC, 2.32 µM; in the experiment on SF-295 CNS it was 1.64 µM. The TGI with U251 CNS was 2.5 µM; in the experiment with SW-620 colon it was more than 100 µM; in the experiment on NCI-H226 lung, 3.64 µM.
As for `Nc1nncs1`, the TGI is 3750 µM in the experiment on NCI-H460 lung; more than 5000 µM in the experiment with MDA-MB-435; more than 3840 µM with COLO 205 colon; more than 4800 µM with T-47D breast; 4660 µM with HOP-92 NSCLC; more than 5000 µM with SF-295 CNS. Moreover, the TGI in the experiment with U251 CNS, in the experiment on MCF7 breast, in the experiment on SW-620 colon and with NCI-H226 lung was more than 5000 µM each time.
For `COc1ccc2c(c1)/C(=C\c1cccc(/C=C3/C(=O)Nc4ccc(OC)cc43)n1)C(=O)N2`, the TGI was more than 24.6 µM with NCI-H460 lung; 6.81 µM in the experiment with MDA-MB-435; 2.04 µM in the experiment with COLO 205 colon; 2.53 µM in the experiment with T-47D breast; 7.44 µM in the experiment on HOP-92 NSCLC; 30.3 µM in the experiment on SF-295 CNS. The TGI was 5.83 µM in the experiment with U251 CNS, more than 25.6 µM in the experiment with MCF7 breast, 7.92 µM in the experiment on SW-620 colon and 4.16 µM in the experiment on NCI-H226 lung. Besides, in the experiment on NCI-H226 lung, the GI50 is 1.54 µM.
`O=C(O)CNCc1c2ccccc2[n+]([O-])c2ccccc12`: the TGI is more than 100 µM in the experiment with NCI-H460 lung; more than 100 µM with COLO 205 colon; 78.1 µM in the experiment with HOP-92 NSCLC; more than 100 µM in the experiment with SF-295 CNS; more than 100 µM in the experiment with U251 CNS; more than 100 µM in the experiment on SW-620 colon. The TGI with NCI-H226 lung is more than 100 µM.

The values above are taken from PubChem BioAssay (NCI).
